Experimental data: patent US12661410B2, “Compounds for targeted degradation of RET” (C4 Therapeutics, Inc., priority 2020, dated 2026)
Substitutions are numbered along the chain they refer to. Like-named read-outs stand apart in the source and are kept apart here.

What was measured:
RET (658-1114) = molecular target: T1, RET (658-1114) (Homo sapiens, UniProt P07949); assay: HiBiT-Degradation, RET wild-type degradation assay (Nano-Glo HiBiT Lytic), 293T.144 cells; type: cell-based; settings: for DC50 / Emax: 6.0 hours
T1 construct: 658-1114; expressed in transfected cells; host or cells: 293T.144 (293T cells, generated in-house)
T1 sequence (P07949 658-1114): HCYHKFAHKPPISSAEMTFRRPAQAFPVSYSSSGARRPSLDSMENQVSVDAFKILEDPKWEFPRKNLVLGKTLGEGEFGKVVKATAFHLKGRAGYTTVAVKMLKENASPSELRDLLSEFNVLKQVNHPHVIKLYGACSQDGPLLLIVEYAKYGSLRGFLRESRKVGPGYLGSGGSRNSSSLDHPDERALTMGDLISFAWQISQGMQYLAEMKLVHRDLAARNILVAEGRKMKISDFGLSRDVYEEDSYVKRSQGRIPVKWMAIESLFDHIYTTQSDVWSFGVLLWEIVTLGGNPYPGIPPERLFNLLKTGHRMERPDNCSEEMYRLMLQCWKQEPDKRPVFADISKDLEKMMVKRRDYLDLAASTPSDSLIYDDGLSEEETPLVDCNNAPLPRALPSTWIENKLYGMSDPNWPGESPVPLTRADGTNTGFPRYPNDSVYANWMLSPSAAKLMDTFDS
Outline: (§1)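 Luminescence readout of HiBiT-tagged RET kinase domain remaining after 6 h compound exposure. Cells: 293T.144 (wild type) or 293T.165 (G810R), 11 half-log doses up to 10 μM, duplicates. DC50 and Emax as % remaining protein taken from curve fits.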

RET(KD: 658-1114 G810R) = molecular target: T2, RET(KD: 658-1114 G810R) (Homo sapiens, UniProt P07949, G810R); assay: HiBiT-Degradation, RET G810R degradation assay (Nano-Glo HiBiT Lytic), 293T.165 cells; type: cell-based; settings: for Emax / DC50: 6.0 hours
T2 construct: 658-1114; expressed in transfected cells; host or cells: 293T.165 (293T cells, generated in-house)
T2 sequence (P07949 658-1114 G810R): T1 sequence (P07949 658-1114) with G153R
Outline: as §1

[1] = HiBiT-Degradation, read-out: 293T.144 RET (658-1114) 6.0 hours (DC50)
[2] = HiBiT-Degradation, read-out: 293T.144 RET (658-1114) 6.0 hours (Emax)
[3] = % remaining protein, read-out: 293T.165 RET(KD: 658-1114 G810R) 6.0 hours (Emax)
[4] = half-maximal degradation concentration, read-out: 293T.165 RET(KD: 658-1114 G810R) 6.0 hours (DC50)
[5] = HiBiT-Degradation, read-out: 293T.165 RET(KD: 658-1114 G810R) 6.0 hours (DC50)
[6] = RET wild-type, read-out: HiBiT-Degradation 293T.144 RET (658-1114) 6.0 hours (DC50)
[7] = RET wild-type, read-out: HiBiT-Degradation 293T.144 RET (658-1114) 6.0 hours (Emax)
[8] = RET G810R, read-out: HiBiT-Degradation 293T.165 RET(KD: 658-1114 G810R) 6.0 hours (DC50)
[9] = RET G810R, read-out: HiBiT-Degradation 293T.165 RET(KD: 658-1114 G810R) 6.0 hours (Emax)
[10] = % remaining protein, read-out: 293T.144 RET (658-1114) 6.0 hours (Emax)
[11] = half-maximal degradation concentration, read-out: 293T.144 RET (658-1114) 6.0 hours (DC50)

SMILES: CC(C)NC(=O)C1(C)CCN(c2ccc(-c3cc(-c4ccc(N5CCN(C(=O)CN6CCC(c7ccc(NC8CCC(=O)NC8=O)cc7F)CC6)CC5)cc4)cn4ncc(C#N)c34)cn2)CC1 (centres unmarked) [Compound 45, 1-[5-[3-cyano-6-[4-[4-[2-[4-[4-[(2,6-dioxo-3-piperidyl)amino]-2-fluoro-phenyl]-1-piperidyl]acetyl]piperazin-1-yl]phenyl]pyrazolo[1,5-a]pyridin-4-yl]-2-pyridyl]-N-isopropyl-4-methyl-piperidine-4-carboxamide]
- 293T.144 RET (658-1114) 6.0 hours (IP) [nM] (RET (658-1114); HiBiT-Degradation): ++++ (< 50 nM = ++++)
- DC50 (RET (658-1114); [1]): < 50 nM
- Emax (RET (658-1114); [2]): < 30%
- Emax (RET(KD: 658-1114 G810R); [3]): < 30%
- DC50 (RET(KD: 658-1114 G810R); [4]): < 100 nM
- 293T.165 RET(KD: 658-1114 G810R) 6.0 hours (Emax) (RET(KD: 658-1114 G810R); HiBiT-Degradation): ++++ (< 30% = ++++)
- 293T.165 RET(KD: 658-1114 G810R) 6.0 hours (IP) [nM] (RET(KD: 658-1114 G810R); HiBiT-Degradation): ++++ (< 50 nM = ++++)
- DC50 (RET(KD: 658-1114 G810R); [5]): < 100 nM

SMILES: CCC1(C(=O)NC(C)C)CCN(c2ccc(-c3cc(-c4cnn([C@H]5CC[C@@H](N6CCC(c7ccc(NC8CCC(=O)NC8=O)cc7F)CC6)CC5)c4)cn4ncc(C#N)c34)cn2)CC1 (some centres unmarked) [Compound 88, 1-(5-(3-cyano-6-(1-((1s, 4s)-4-(4-(4-((2,6-dioxopiperidin-3-yl)amino)-2-fluorophenyl)piperidin-1-yl)cyclohexyl)-1H-pyrazol-4-yl)pyrazolo[1,5-a]pyridin-4-yl)pyridin-2-yl)-4-ethyl-N-isopropylpiperidine-4-carboxamide]
- HiBiT-Degradation 293T.144 RET (658-1114) 6.0 hours (IP) [nM] (RET (658-1114); RET wild-type): ++++ (< 50 nM = ++++)
- DC50 (RET (658-1114); [6]): < 50 nM
- Emax (RET (658-1114); [7]): < 30%
- Emax (RET(KD: 658-1114 G810R); [3]): < 50%
- DC50 (RET(KD: 658-1114 G810R); [4]): < 1000 nM
- HiBiT-Degradation 293T.165 RET(KD: 658-1114 G810R) 6.0 hours (IP) [nM] (RET(KD: 658-1114 G810R); RET G810R): ++++ (< 50 nM = ++++)
- DC50 (RET(KD: 658-1114 G810R); [8]): < 1000 nM
- Emax (RET(KD: 658-1114 G810R); [9]): < 50%

SMILES: COC1(C(=O)NC(C)C)CCN(c2ccc(-c3cc(-c4cnn(C5CCN(C(=O)CN6CCC(c7ccc(NC8CCC(=O)NC8=O)cc7F)CC6)CC5)c4)cn4ncc(C#N)c34)cn2)CC1 (centres unmarked) [Compound 6, 1-[5-[3-cyano-6-[1-[1-[2-[4-[4-[(2,6-dioxo-3-piperidyl)amino]-2-fluoro-phenyl]-1-piperidyl]acetyl]-4-piperidyl]pyrazol-4-yl]pyrazolo[1,5-a]pyridin-4-yl]-2-pyridyl]-N-isopropyl-4-methoxy-piperidine-4-carboxamide]
- 293T.144 RET (658-1114) 6.0 hours (IP) [nM] (RET (658-1114); HiBiT-Degradation): ++++ (< 50 nM = ++++)
- DC50 (RET (658-1114); [1]): < 50 nM
- Emax (RET (658-1114); [2]): < 30%
- Emax (RET(KD: 658-1114 G810R); [3]): < 50%
- DC50 (RET(KD: 658-1114 G810R); [4]): < 50 nM
- 293T.165 RET(KD: 658-1114 G810R) 6.0 hours (Emax) (RET(KD: 658-1114 G810R); HiBiT-Degradation): +++ (<50% = +++)
- 293T.165 RET(KD: 658-1114 G810R) 6.0 hours (IP) [nM] (RET(KD: 658-1114 G810R); HiBiT-Degradation): ++++ (< 50 nM = ++++)
- DC50 (RET(KD: 658-1114 G810R); [5]): < 50 nM

SMILES: COc1cc(N2CCN(C3CCC(n4cc(-c5cn6ncc(C#N)c6c(-c6ccc(N7CC8COCC(C7)N8Cc7ccccn7)nc6)n5)cn4)CC3)CC2)c(F)cc1NC1CCC(=O)NC1=O (centres unmarked) [Compound 205, 6-[1-[4-[4-[4-[(2,6-dioxo-3-piperidyl)amino]-2-fluoro-5-methoxy-phenyl]piperazin-1-yl]cyclohexyl]pyrazol-4-yl]-4-[6-[9-(2-pyridylmethyl)-3-oxa-7,9-diazabicyclo[3.3.1]nonan-7-yl]-3-pyridyl]pyrazolo[1,5-a]pyrazine-3-carbonitrile]
- 293T.144 RET (658-1114) 6.0 hours (IP) [nM] (RET (658-1114)): ++++ (<50 nM = ++++)
- Emax (RET (658-1114); [10]): < 30%
- DC50 (RET (658-1114); [11]): < 50 nM
- 293T.165 RET(KD: 658-1114 G810R) 6.0 hours (IP) [nM] (RET(KD: 658-1114 G810R)): +++ (<100 nM = +++)
- Emax (RET(KD: 658-1114 G810R); [3]): < 30%
- DC50 (RET(KD: 658-1114 G810R); [4]): < 100 nM

SMILES: CCC1(C(=O)NC(C)C)CCN(c2ccc(-c3nc(-c4cnn(CC5CCN(C(=O)CC6(O)CCN(c7ccc(NC8CCC(=O)NC8=O)cc7F)CC6)CC5)c4)cn4ncc(C#N)c34)cn2)CC1 (centres unmarked) [Compound 84, 1-[5-[3-cyano-6-[1-[[1-[2-[1-[4-[(2,6-dioxo-3-piperidyl)amino]-2-fluoro-phenyl]-4-hydroxy-4-piperidyl]acetyl]-4-piperidyl]methyl]pyrazol-4-yl]pyrazolo[1,5-a]pyrazin-4-yl]-2-pyridyl]-4-ethyl-N-isopropyl-piperidine-4-carboxamide]
- HiBiT-Degradation 293T.144 RET (658-1114) 6.0 hours (IP) [nM] (RET (658-1114); RET wild-type): ++++ (< 50 nM = ++++)
- DC50 (RET (658-1114); [6]): < 50 nM
- Emax (RET (658-1114); [7]): < 30%
- Emax (RET(KD: 658-1114 G810R); [3]): < 30%
- DC50 (RET(KD: 658-1114 G810R); [4]): < 100 nM
- HiBiT-Degradation 293T.165 RET(KD: 658-1114 G810R) 6.0 hours (IP) [nM] (RET(KD: 658-1114 G810R); RET G810R): ++++ (< 50 nM = ++++)
- DC50 (RET(KD: 658-1114 G810R); [8]): < 100 nM
- Emax (RET(KD: 658-1114 G810R); [9]): < 30%

SMILES: CCOc1ccc(CN2[C@@H]3COC[C@H]2CN(c2ccc(-c4nc(-c5cnn([C@H]6CC[C@H](N7CCN(c8c(F)cc(NC9CCC(=O)NC9=O)cc8F)CC7)CC6)c5)cn5ncc(C#N)c45)cn2)C3)cn1 (mixture of isomers) [Compound 212, 6-[1-[4-[4-[4-[(2,6-dioxo-3-piperidyl)amino]-2,6-difluoro-phenyl]piperazin-1-yl]cyclohexyl]pyrazol-4-yl]-4-[6-[rac-(1R,5S)-9-[(6-ethoxy-3-pyridyl)methyl]-3-oxa-7,9-diazabicyclo[3.3.1]nonan-7-yl]-3-pyridyl]pyrazolo[1,5-a]pyrazine-3-carbonitrile]
- 293T.144 RET (658-1114) 6.0 hours (IP) [nM] (RET (658-1114)): ++++ (<50 nM = ++++)
- Emax (RET (658-1114); [10]): < 30%
- DC50 (RET (658-1114); [11]): < 50 nM
- 293T.165 RET(KD: 658-1114 G810R) 6.0 hours (IP) [nM] (RET(KD: 658-1114 G810R)): +++ (<100 nM = +++)
- Emax (RET(KD: 658-1114 G810R); [3]): < 30%
- DC50 (RET(KD: 658-1114 G810R); [4]): < 100 nM

SMILES: CCC1(C(=O)Nc2ccc(F)cc2)CCN(c2ccc(-c3nc(-c4cnn(C5CCN(C(=O)CC6(O)CCN(c7ccc(NC8CCC(=O)NC8=O)cc7F)CC6)CC5)c4)cn4ncc(C#N)c34)cn2)CC1 (centres unmarked) [Compound 101, 1-[5-[3-cyano-6-[1-[1-[2-[1-[4-[(2,6-dioxo-3-piperidyl)amino]-2-fluoro-phenyl]-4-hydroxy-4-piperidyl]acetyl]-4-piperidyl]pyrazol-4-yl]pyrazolo[1,5-a]pyrazin-4-yl]-2-pyridyl]-4-ethyl-N-(4-fluorophenyl)piperidine-4-carboxamide]
- 293T.144 RET (658-1114) 6.0 hours (IP) [nM] (RET (658-1114)): ++++ (<50 nM = ++++)
- Emax (RET (658-1114); [10]): < 30%
- DC50 (RET (658-1114); [11]): < 50 nM
- 293T.165 RET(KD: 658-1114 G810R) 6.0 hours (IP) [nM] (RET(KD: 658-1114 G810R)): ++++ (<50 nM = ++++)
- Emax (RET(KD: 658-1114 G810R); [3]): < 30%
- DC50 (RET(KD: 658-1114 G810R); [4]): < 50 nM

SMILES: N#Cc1cnn2cc(-c3cnn([C@H]4CC[C@H](N5CCC(c6ccc(N[C@H]7CCC(=O)NC7=O)cc6F)CC5)CC4)c3)nc(-c3ccc(N4CCC5(CC4)OCc4cccnc45)nc3)c12 (single isomer, unassigned) [Compound 179]
- 293T.144 RET (658-1114) 6.0 hours (IP) [nM] (RET (658-1114)): ++++ (<50 nM = ++++)
- Emax (RET (658-1114); [10]): < 30%
- DC50 (RET (658-1114); [11]): < 50 nM
- 293T.165 RET(KD: 658-1114 G810R) 6.0 hours (IP) [nM] (RET(KD: 658-1114 G810R)): ++++ (<50 nM = ++++)
- Emax (RET(KD: 658-1114 G810R); [3]): < 30%
- DC50 (RET(KD: 658-1114 G810R); [4]): < 50 nM
